Measurements as given in PubChem BioAssay (NCI).
Several values for one entry are separate records, joined by “and”; a condition that tells them apart may be missing. Identical values can stand only once.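 Method: 48-hour compound exposure of cells in 96-well plates, five concentrations, linear interpolation of endpoints. At the GI50, growth is halved. The concentration for full growth arrest is given as TGI.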

Key:
Experiment in all cases: NCI tumour cell line growth inhibition, 48 h
HCT-15 colon = system: HCT-15 colon
MCF7 breast = system: MCF7 breast
RXF 393 renal = system: RXF 393 renal
SF-295 CNS = system: SF-295 CNS
SK-MEL-2 melanoma = system: SK-MEL-2 melanoma
SK-OV-3 ovarian = system: SK-OV-3 ovarian
SW-620 colon = system: SW-620 colon
T-47D breast = system: T-47D breast
DLD-1 colon = system: DLD-1 colon
DMS 114 small cell lung = system: DMS 114 small cell lung

Row | Structure (SMILES) | GI50 (HCT-15 colon) | TGI (HCT-15 colon) | GI50 (MCF7 breast) | TGI (MCF7 breast) | GI50 (RXF 393 renal) | TGI (RXF 393 renal) | GI50 (SF-295 CNS) | TGI (SF-295 CNS) | GI50 (SK-MEL-2 melanoma) | TGI (SK-MEL-2 melanoma) | GI50 (SK-OV-3 ovarian) | TGI (SK-OV-3 ovarian) | GI50 (SW-620 colon) | TGI (SW-620 colon) | GI50 (T-47D breast) | TGI (T-47D breast) | TGI (DLD-1 colon) [µM] | TGI (DMS 114 small cell lung) [µM]
1 | COc1cc(Cn2c(SCC(=O)Nc3ccc(Cl)cc3)nc3ccccc3c2=O)cc(OC)c1OC | 17 µM | > 100 µM | 8.97 µM | 55.1 µM | 2.59 µM | 8.88 µM | 5.54 µM | 18.4 µM | 15.2 µM | 32.9 µM | 4.2 µM | 16.7 µM | 31.8 µM | > 100 µM | 2.16 µM | 8.21 µM |  | 
2 | CCN1C(=O)N(CC)C2C1NN=c1s/c(=C\c3ccc(OC)cc3)c(=O)n12 (configuration not stated) | 0.104 µM | > 100 µM | 0.0465 µM | > 100 µM | 0.0789 µM | 47 µM | 0.0684 µM | > 45.9 µM | 1.66 µM | > 100 µM | 0.267 µM | 17.1 µM | 0.136 µM | > 100 µM | 0.163 µM | > 100 µM |  | 
3 | CS(=O)(=O)N1CCc2c(-c3cnc(N)nc3)nc(N3CCOCC3)nc21 | 0.397 µM and 0.419 µM | > 100 µM | 0.0961 µM and 0.05 µM | > 76.1 µM | 0.605 µM and 0.421 µM | 4.04 µM and 3.27 µM | 0.556 µM and 0.354 µM | 3.91 µM and 3.29 µM | 1.28 µM and 1.77 µM | 8.66 µM and 14 µM | 0.128 µM and 0.166 µM | 0.692 µM and 1.37 µM | 1.54 µM and 1.29 µM | > 100 µM | 0.041 µM and 0.0468 µM | 0.399 µM and 0.463 µM |  | 
4 | Cc1cc(C#Cc2ccccc2)ccc1-n1c(/C=C/c2cc(O)ccc2O)nc2ccccc2c1=O | 1.03 µM | 2.21 µM | 1.45 µM | 2.87 µM | 1.65 µM | 3.72 µM | 1.35 µM | 3.82 µM | 1.4 µM | 3.05 µM | 1.83 µM | 4.61 µM | 1.71 µM | 3.51 µM | 1.14 µM | 3.67 µM |  | 
5 | COC1=CC2CCN3Cc4cc5c(cc4C(C1O)C23)OCC5 (configuration not stated) | 1.31 µM | 8.49 µM | 3.36 µM | > 100 µM | 2.74 µM | 16.7 µM | 3.88 µM | 24.4 µM | 14.4 µM | > 43 µM | 1.84 µM | > 100 µM | 5.21 µM | > 100 µM | 1.33 µM | 6.51 µM |  | 
6 | C=C1C(=O)C2(C)OC2(C)C1C(=O)O (configuration not stated) |  | > 100 µM |  | > 100 µM |  | > 100 µM |  | > 100 µM |  | > 100 µM |  | > 100 µM |  | > 100 µM |  | > 100 µM |  | 
7 | CCOC(=O)c1cc(-c2ccccc2)[nH]c1N/N=C/c1c(Cl)cccc1Cl | 0.671 µM | > 100 µM | 0.45 µM | > 100 µM | 0.47 µM | 9.51 µM | 0.339 µM | 10.3 µM | 0.961 µM | 87.5 µM | 2.4 µM | > 100 µM | 0.433 µM | > 81.2 µM | > 21.2 µM | > 100 µM |  | 
8 | CC(C)[C@H](C(=O)O[C@@H]1/C=C/C(=O)O[C@@H](C)CCC/C=C/[C@@H]2C[C@H](O)C[C@H]21)N(C)C | 14.1 µM | 34.5 µM | 6.65 µM | 28.1 µM | 3.29 µM | 15.6 µM | 4.85 µM | 25.1 µM | 17 µM | > 63.2 µM | 17.9 µM | > 96.7 µM | 6.35 µM | 21.8 µM | 31 µM | > 100 µM |  | 
9 | CC1CC(c2ccc(Cl)c(Cl)c2)=Nc2ccccc2S1 (configuration not stated) |  | > 100 µM |  |  |  | > 100 µM |  | > 100 µM |  |  |  | > 100 µM |  | > 100 µM |  |  | > 100 | > 100
10 | NCC1(N2CCOCC2)C2CCCC21CNc1ccccc1 (configuration not stated) |  |  |  |  |  | > 100 µM |  | > 100 µM |  |  |  |  |  | > 100 µM |  |  | > 100 | > 100
11 | CC12CC(=O)C3C(CCC4=CC(=O)CCC43C)C1CC=C2CC(=O)O (configuration not stated) |  | > 100 µM |  | > 100 µM |  | > 100 µM |  | > 100 µM |  | > 100 µM |  | > 100 µM |  | > 100 µM |  | > 100 µM |  | 
12 | CN1CCN(c2ccc(Nc3ncc4cc5n(c4n3)C3(CCCCC3)CNC5=O)nc2)CC1 | 2.16 µM | 13.2 µM | 0.109 µM | 14.6 µM | 1.32 µM | 3.71 µM | 3.09 µM | 18.4 µM | 4.49 µM | 21.8 µM | 11.4 µM | 68.2 µM | 0.166 µM | 11.8 µM | 4.15 µM | > 100 µM |  | 
13 | Cn1cc(C2=C(c3c(S(C)=O)n(C)c4ccccc34)C(=O)NC2=O)c2ccccc21 (configuration not stated) | 7.38 µM | > 25 µM | 6.33 µM | > 25 µM | 5.42 µM | > 20.7 µM | 5.93 µM | > 17.2 µM | 7.88 µM | > 25 µM | 7.87 µM | > 25 µM | 7.78 µM | > 25 µM | 8.35 µM | > 25 µM |  | 
14 | N[C@@H](CSSC[C@H](N)C(=O)N1CCn2cc(-c3ccccc3)nc2[C@@H]1CC1CCCCC1)C(=O)N1CCn2cc(-c3ccccc3)nc2[C@@H]1CC1CCCCC1 | 1.82 µM | 3.71 µM | 1.42 µM | 2.85 µM | 1.63 µM | 3.1 µM | 1.83 µM | 3.41 µM | 0.837 µM | 2.28 µM | 1.59 µM | 5.42 µM | 1.24 µM | 3.36 µM | 0.543 µM | 2.02 µM |  | 
15 | O=C1CC[C@@H](NC(=O)Cc2ccccc2)C(=O)N1 |  |  |  |  |  |  |  | > 100 µM |  | > 100 µM |  | > 100 µM |  | > 100 µM |  |  | > 100 | 
16 | CC1COCCN1CC#CCOC(=O)c1cc2ccccc2oc1=O (configuration not stated) | > 100 µM | > 100 µM | > 100 µM | > 100 µM | > 100 µM | > 100 µM | > 100 µM | > 100 µM | > 100 µM | > 100 µM | > 100 µM | > 100 µM | > 100 µM | > 100 µM | > 100 µM | > 100 µM |  | 
17 | Cc1ccc(NC(=O)C(=O)CC(=O)c2ccccc2)cc1C |  | > 100 µM |  |  |  | > 100 µM |  | > 100 µM |  |  |  | > 100 µM |  | > 100 µM |  |  | > 100 | > 100
18 | N#Cc1ccc(/C=C/C(=O)c2ccccc2)cc1 | 7.13 µM and 3.28 µM | 18.7 µM and 13.5 µM | 2.44 µM and 1.71 µM | 9.25 µM and 5.38 µM | 7.15 µM and 5.93 µM | 19.3 µM and 18.2 µM | 16.4 µM and 11.8 µM | 32.1 µM and 25.4 µM | 18.9 µM and 18.8 µM | 39.1 µM and 37.8 µM | 17.3 µM and 20.2 µM | 33.2 µM and 44.9 µM | 2.72 µM and 1.77 µM | 7.73 µM and 3.45 µM | 11.1 µM and 12.2 µM | 24.7 µM and 27.7 µM |  | 
